SMILES strings stand for the structures. pIC50: −log10 of the molar value.

In the assay the target is TRKA (Homo sapiens (Human), UniProt P04629). Nature of the assay: Isolated TRK enzyme assay (HTRF KinEASE-TK), TRKA. The assay is classed as biochemical. Particulars: read-out: Trka enzyme (IC50).
Chain of TRKA (P04629 441-796): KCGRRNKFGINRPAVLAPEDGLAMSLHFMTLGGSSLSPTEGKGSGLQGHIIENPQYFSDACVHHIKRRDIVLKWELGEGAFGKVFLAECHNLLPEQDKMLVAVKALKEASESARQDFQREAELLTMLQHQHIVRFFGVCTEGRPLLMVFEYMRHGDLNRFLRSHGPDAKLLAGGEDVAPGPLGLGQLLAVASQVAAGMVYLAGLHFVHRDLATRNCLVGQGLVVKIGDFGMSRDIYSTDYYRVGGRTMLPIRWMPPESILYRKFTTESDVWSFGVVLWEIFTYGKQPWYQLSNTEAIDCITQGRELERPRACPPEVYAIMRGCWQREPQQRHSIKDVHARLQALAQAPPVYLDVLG
In the case of `CC(C)(CO)n1cc(C(=O)c2cncc(NC(=O)Cc3ncc(F)cc3F)c2)c2cnc(N)nc21` [Example 555, N-{5-[2-Amino-7-(2-hydroxy-1,1-dimethyl-ethyl)-7H-pyrrolo[2,3-d]pyrimidine-5-carbonyl]-pyridin-3-yl}-2-(3,5-difluoro-pyridin-2-yl)-acetamide], the negative logarithm of the IC50 (pIC50) (commonly −log10 of the IC50, conventionally taken in molar units) was 6.82.

In the case of `Cc1ccc(CC(=O)Nc2cncc(C(=O)c3cn(C(C)(C)CO)c4nc(N)ncc34)c2)nc1` [Example 556, N-{5-[2-Amino-7-(2-hydroxy-1,1-dimethyl-ethyl)-7H-pyrrolo[2,3-d]pyrimidine-5-carbonyl]-pyridin-3-yl}-2-(5-methyl-pyridin-2-yl)-acetamide], the pIC50 was 8.50.

As to `CN(c1ccc(CC(=O)Nc2cncc(C(=O)c3cn(C(C)(C)CO)c4nc(N)ncc34)c2)cc1)S(C)(=O)=O` [Example 557, N-(5-{[2-amino-7-(2-hydroxy-1,1-dimethylethyl)-7H-pyrrolo[2,3-d]pyrimidin-5-yl]carbonyl}pyridin-3-yl)-2-{4-[methyl(methylsulfonyl)amino]phenyl}-acetamide], the negative-log IC50 (pIC50) was 8.02.

On to `CC(C)(CO)n1cc(C(=O)c2cncc(NC(=O)Cc3nc4ccccc4[nH]3)c2)c2cnc(N)nc21` [Example 558, N-{5-[2-Amino-7-(2-hydroxy-1,1-dimethyl-ethyl)-7H-pyrrolo[2,3-d]pyrimidine-5-carbonyl]-pyridin-3-yl}-2-(1H-benzoimidazol-2-yl)-acetamide], for which the pIC50 was 8.25.

In the case of `CC(C)(CO)n1cc(C(=O)c2cncc(NC(=O)Cn3cc(C(F)(F)F)ccc3=O)c2)c2cnc(N)nc21` [Example 559, N-{5-[2-Amino-7-(2-hydroxy-1,1-dimethyl-ethyl)-7H-pyrrolo[2,3-d]pyrimidine-5-carbonyl]-pyridin-3-yl}-2-(2-oxo-5-trifluoromethyl-2H-pyridin-1-yl)-acetamide], the pIC50 was 6.43.

As to `CC(C)(CO)n1cc(C(=O)c2cncc(NC(=O)Cc3ncc(Cl)cc3F)c2)c2cnc(N)nc21` [Example 560, N-{5-[2-Amino-7-(2-hydroxy-1,1-dimethyl-ethyl)-7H-pyrrolo[2,3-d]pyrimidine-5-carbonyl]-pyridin-3-yl}-2-(5-chloro-3-fluoro-pyridin-2-yl)-acetamide], the pIC50 is 5.79.

As for `CCOc1ccc(CC(=O)Nc2cncc(C(=O)c3cn(C(C)(C)CO)c4nc(N)ncc34)c2)nc1` [Example 561, N-{5-[2-Amino-7-(2-hydroxy-1,1-dimethyl-ethyl)-7H-pyrrolo[2,3-d]pyrimidine-5-carbonyl]-pyridin-3-yl}-2-(5-ethoxy-pyridin-2-yl)-acetamide], the pIC50 is 6.95.

Consider `CC(C)(CO)n1cc(C(=O)c2cncc(NC(=O)Cc3ccc(C(F)(F)F)cn3)c2)c2cnc(N)nc21` [Example 562, N-{5-[2-Amino-7-(2-hydroxy-1,1-dimethyl-ethyl)-7H-pyrrolo[2,3-d]pyrimidine-5-carbonyl]-pyridin-3-yl}-2-(5-trifluoromethyl-pyridin-2-yl)-acetamide], for which the pIC50 was 8.43.

As for `CC(C)(CO)n1cc(C(=O)c2cncc(NC(=O)Cn3cc(C(F)(F)F)cn3)c2)c2cnc(N)nc21` [Example 563, N-{5-[2-Amino-7-(2-hydroxy-1,1-dimethyl-ethyl)-7H-pyrrolo[2,3-d]pyrimidine-5-carbonyl]-pyridin-3-yl}-2-(4-trifluoromethyl-pyrazol-1-yl)-acetamide], the negative logarithm of the IC50 (pIC50) is 8.51.

As for `CC(C)(CO)n1cc(C(=O)c2cncc(NC(=O)Cc3ccc(NS(C)(=O)=O)cc3)c2)c2cnc(N)nc21` [Example 564, N-{5-[2-Amino-7-(2-hydroxy-1,1-dimethyl-ethyl)-7H-pyrrolo[2,3-d]pyrimidine-5-carbonyl]-pyridin-3-yl}-2-(4-methanesulfonylamino-phenyl)-acetamide], the negative logarithm of the IC50 (pIC50) was 8.80.

As to `CC(C)(CO)n1cc(C(=O)c2cncc(NC(=O)Cc3ccc(OC(F)F)cc3)c2)c2cnc(N)nc21` [Example 565, N-{5-[2-Amino-7-(2-hydroxy-1,1-dimethyl-ethyl)-7H-pyrrolo[2,3-d]pyrimidine-5-carbonyl]-pyridin-3-yl}-2-(4-difluoromethoxy-phenyl)-acetamide], the negative-log IC50 (pIC50) is 7.75.

Regarding `CC(C)(CO)n1cc(C(=O)c2cncc(NC(=O)Cc3ccc(OC(F)(F)F)cc3)c2)c2cnc(N)nc21` [Example 567, N-{5-[2-Amino-7-(2-hydroxy-1,1-dimethyl-ethyl)-7H-pyrrolo[2,3-d]pyrimidine-5-carbonyl]-pyridin-3-yl}-2-(4-trifluoromethoxy-phenyl)-acetamide], the pIC50 is 7.68.

Take `CC(C)(CO)n1cc(C(=O)c2cncc(NC(=O)Cc3ccc(F)c(F)c3)c2)c2cnc(N)nc21` [Example 568, N-{5-[2-Amino-7-(2-hydroxy-1,1-dimethyl-ethyl)-7H-pyrrolo[2,3-d]pyrimidine-5-carbonyl]-pyridin-3-yl}-2-(3,4-difluoro-phenyl)-acetamide]: the pIC50 is 7.92.

Take `CC(C)(CO)n1cc(C(=O)c2cncc(NC(=O)Cc3ncc(Cl)cn3)c2)c2cnc(N)nc21` [Example 569, N-{5-[2-Amino-7-(2-hydroxy-1,1-dimethyl-ethyl)-7H-pyrrolo[2,3-d]pyrimidine-5-carbonyl]-pyridin-3-yl}-2-(5-chloro-pyrimidin-2-yl)-acetamide]: the pIC50 was 7.46.

As to `N#Cc1ccc(CC(=O)Nc2cncc(C(=O)c3c[nH]c4ncncc34)c2)cc1` [Example 570, 2-(4-Cyano-phenyl)-N-[5-(7H-pyrrolo[2,3-d]pyrimidine-5-carbonyl)-pyridin-3-yl]-acetamide], the negative-log IC50 (pIC50) was 5.16.

As to `CC1(n2cc(C(=O)c3cncc(NC(=O)Cc4ccc(C(F)(F)F)cc4)c3)c3cncnc32)COC1` [Example 571, N-{5-[7-(3-Methyl-oxetan-3-yl)-7H-pyrrolo[2,3-d]pyrimidine-5-carbonyl]-pyridin-3-yl}-2-(4-trifluoromethyl-phenyl)-acetamide], the pIC50 was 8.53.

Consider `CC1(n2cc(C(=O)c3cncc(NC(=O)Cc4cccc(C(F)(F)F)c4)c3)c3cncnc32)COC1` [Example 572, N-{5-[7-(3-Methyl-oxetan-3-yl)-7H-pyrrolo[2,3-d]pyrimidine-5-carbonyl]-pyridin-3-yl}-2-(3-trifluoromethyl-phenyl)-acetamide], for which the negative logarithm of the IC50 (pIC50) was 8.02.

In the case of `CC1(n2cc(C(=O)c3cncc(NC(=O)Cc4ccc(C(F)(F)F)c(F)c4)c3)c3cncnc32)COC1` [Example 573, 2-(3-Fluoro-4-trifluoromethyl-phenyl)-N-{5-[7-(3-methyl-oxetan-3-yl)-7H-pyrrolo[2,3-d]pyrimidine-5-carbonyl]-pyridin-3-yl}-acetamide], the negative logarithm of the IC50 (pIC50) was 7.75.

Consider `CC1(n2cc(C(=O)c3cncc(NC(=O)c4cccc(C(F)(F)F)c4)c3)c3cncnc32)COC1` [Example 574, N-{5-[7-(3-Methyl-oxetan-3-yl)-7H-pyrrolo[2,3-d]pyrimidine-5-carbonyl]-pyridin-3-yl}-3-trifluoromethyl-benzamide], for which the negative-log IC50 (pIC50) was 7.85.

As for `CC1(n2cc(C(=O)c3cncc(NC(=O)c4cccc(OC(F)(F)F)c4)c3)c3cncnc32)COC1` [Example 575, N-{5-[7-(3-Methyl-oxetan-3-yl)-7H-pyrrolo[2,3-d]pyrimidine-5-carbonyl]-pyridin-3-yl}-3-trifluoromethoxy-benzamide], the pIC50 is 8.51.
